How the values were obtained:
[1] = test system: UACC-62; assay: NCI-60 SRB screen; type: cell-based, human; conditions: Homo sapiens; single dose 10^−5 M; UACC-62, Melanoma; read-out: Growth inhibition (%)
[2] = test system: SR; assay: NCI-60 SRB screen; type: cell-based; conditions: Homo sapiens, single dose 10^−5 M, Leukaemia, read-out: Growth inhibition (%)
[3] = test system: MOLT-4; assay: NCI-60 SRB screen; type: cell-based; conditions: Homo sapiens; single dose 10^−5 M; MOLT-4, Leukaemia; read-out: Growth inhibition (%)
[4] = test system: MALME-3M; assay: NCI-60 SRB screen; type: cell-based, human; conditions: Homo sapiens, single dose 10^−5 M, Melanoma, read-out: Growth inhibition (%)
[5] = test system: HL-60(TB); assay: NCI-60 SRB screen; type: cell-based, human; conditions: Homo sapiens; single dose 10^−5 M; HL-60(TB), Leukaemia; read-out: Growth inhibition (%)
[6] = test system: 786-0; assay: NCI-60 SRB screen; type: cell-based; conditions: Homo sapiens; single dose 10^−5 M; 786-0, Renal cancer; read-out: Growth inhibition (%)
[7] = test system: NCI-H460; assay: NCI-60 SRB screen; type: cell-based, human; conditions: Homo sapiens; single dose 10^−5 M; NCI-H460, Non-small cell lung carcinoma; read-out: Growth inhibition (%)
[8] = test system: SK-MEL-28; assay: NCI-60 SRB screen; type: cell-based; conditions: Homo sapiens; single dose 10^−5 M; SK-MEL-28, Melanoma; read-out: Growth inhibition (%)
[9] = test system: RXF 393; assay: NCI-60 SRB screen; type: cell-based, human; conditions: Homo sapiens; single dose 10^−5 M; RXF 393, Renal cancer; read-out: Growth inhibition (%)
[10] = test system: HCT-116; assay: NCI-60 SRB screen; type: cell-based, human; conditions: Homo sapiens; single dose 10^−5 M; HCT-116, Colon cancer; read-out: Growth inhibition (%)
[11] = test system: KM12; assay: NCI-60 SRB screen; type: cell-based, human; conditions: Homo sapiens; single dose 10^−5 M; KM12, Colon cancer; read-out: Growth inhibition (%)
[12] = test system: panel of 60 cancer cell lines; assay: NCI-60 SRB screen, mean or range over the panel; type: cell-based, human; conditions: Homo sapiens; mean over the cell lines; single dose 10^−5 M; read-out: Mean growth inhibition (%)
[13] = test system: SF-268; assay: NCI-60 SRB screen; type: cell-based, human; conditions: Homo sapiens; single dose 10^−5 M; SF-268, CNS cancer; read-out: Growth inhibition (%)
[14] = test system: SK-OV-3; assay: NCI-60 SRB screen; type: cell-based, human; conditions: Homo sapiens; single dose 10^−5 M; SK-OV-3, Ovarian cancer; read-out: Growth inhibition (%)
[15] = test system: NCI/ADR-RES; assay: NCI-60 SRB screen; type: cell-based, human; conditions: Homo sapiens, single dose 10^−5 M, Ovarian cancer, read-out: Growth inhibition (%)
[16] = test system: LOX IMVI; assay: NCI-60 SRB screen; type: cell-based, human; conditions: Homo sapiens, single dose 10^−5 M, Melanoma, read-out: Growth inhibition (%)
[17] = test system: HCC-2998; assay: NCI-60 SRB screen; type: cell-based, human; conditions: Homo sapiens; single dose 10^−5 M; HCC-2998, Colon cancer; read-out: Growth inhibition (%)
[18] = test system: NCI-H322M; assay: NCI-60 SRB screen; type: cell-based, human; conditions: Homo sapiens, single dose 10^−5 M, Non-small cell lung carcinoma, read-out: Growth inhibition (%)
[19] = test system: M14; assay: NCI-60 SRB screen; type: cell-based, human; conditions: Homo sapiens; single dose 10^−5 M; M14, Melanoma; read-out: Growth inhibition (%)
[20] = test system: OVCAR-3; assay: NCI-60 SRB screen; type: cell-based, human; conditions: Homo sapiens; single dose 10^−5 M; OVCAR-3, Ovarian cancer; read-out: Growth inhibition (%)
[21] = test system: EKVX; assay: NCI-60 SRB screen; type: cell-based, human; conditions: Homo sapiens, single dose 10^−5 M, Non-small cell lung carcinoma, read-out: Growth inhibition (%)
[22] = test system: OVCAR-4; assay: NCI-60 SRB screen; type: cell-based, human; conditions: Homo sapiens; single dose 10^−5 M; OVCAR-4, Ovarian cancer; read-out: Growth inhibition (%)
[23] = test system: NCI-H23; assay: NCI-60 SRB screen; type: cell-based, human; conditions: Homo sapiens; single dose 10^−5 M; NCI-H23, Non-small cell lung carcinoma; read-out: Growth inhibition (%)
[24] = test system: UO-31; assay: NCI-60 SRB screen; type: cell-based, human; conditions: Homo sapiens; single dose 10^−5 M; UO-31, Renal cancer; read-out: Growth inhibition (%)
[25] = test system: IGROV1; assay: NCI-60 SRB screen; type: cell-based, human; conditions: Homo sapiens, IGROV-1; single dose 10^−5 M; IGROV1, Ovarian cancer; read-out: Growth inhibition (%)
[26] = test system: SK-MEL-2; assay: NCI-60 SRB screen; type: cell-based, human; conditions: Homo sapiens; single dose 10^−5 M; SK-MEL-2, Melanoma; read-out: Growth inhibition (%)
[27] = test system: CCRF-CEM; assay: NCI-60 SRB screen; type: cell-based; conditions: Homo sapiens, single dose 10^−5 M, Leukaemia, read-out: Growth inhibition (%)
[28] = test system: OVCAR-8; assay: NCI-60 SRB screen; type: cell-based, human; conditions: Homo sapiens; single dose 10^−5 M; OVCAR-8, Ovarian cancer; read-out: Growth inhibition (%)
[29] = test system: HCT-15; assay: NCI-60 SRB screen; type: cell-based, human; conditions: Homo sapiens; single dose 10^−5 M; HCT-15, Colon cancer; read-out: Growth inhibition (%)
[30] = test system: HT-29; assay: NCI-60 SRB screen; type: cell-based; conditions: Homo sapiens; single dose 10^−5 M; HT-29, Colon cancer; read-out: Growth inhibition (%)
[31] = test system: SK-MEL-5; assay: NCI-60 SRB screen; type: cell-based, human; conditions: Homo sapiens; single dose 10^−5 M; SK-MEL-5, Melanoma; read-out: Growth inhibition (%)
[32] = test system: A549/ATCC; assay: NCI-60 SRB screen; type: cell-based, human; conditions: Homo sapiens, single dose 10^−5 M, Non-small cell lung carcinoma, read-out: Growth inhibition (%)
[33] = test system: COLO 205; assay: NCI-60 SRB screen; type: cell-based, human; conditions: Homo sapiens; single dose 10^−5 M; COLO 205, Colon cancer; read-out: Growth inhibition (%)
[34] = test system: SN12C; assay: NCI-60 SRB screen; type: cell-based, human; conditions: Homo sapiens, SN12C; single dose 10^−5 M; SN 12 C, Renal cancer; read-out: Growth inhibition (%)
[35] = test system: ACHN; assay: NCI-60 SRB screen; type: cell-based; conditions: Homo sapiens, single dose 10^−5 M, Renal cancer, read-out: Growth inhibition (%)
[36] = test system: HOP-62; assay: NCI-60 SRB screen; type: cell-based, human; conditions: Homo sapiens; single dose 10^−5 M; HOP-62, Non-small cell lung carcinoma; read-out: Growth inhibition (%)
[37] = test system: UACC-257; assay: NCI-60 SRB screen; type: cell-based, human; conditions: Homo sapiens; single dose 10^−5 M; UACC-257, Melanoma; read-out: Growth inhibition (%)
[38] = test system: NCI-H522; assay: NCI-60 SRB screen; type: cell-based, human; conditions: Homo sapiens; single dose 10^−5 M; NCI-H522, Non-small cell lung carcinoma; read-out: Growth inhibition (%)
[39] = test system: SF-295; assay: NCI-60 SRB screen; type: cell-based, human; conditions: Homo sapiens; single dose 10^−5 M; SF-295, CNS cancer; read-out: Growth inhibition (%)
[40] = test system: NCI-H226; assay: NCI-60 SRB screen; type: cell-based, human; conditions: Homo sapiens; single dose 10^−5 M; NCI-H226, Non-small cell lung carcinoma; read-out: Growth inhibition (%)
[41] = test system: TK-10; assay: NCI-60 SRB screen; type: cell-based, human; conditions: Homo sapiens; single dose 10^−5 M; TK-10, Renal cancer; read-out: Growth inhibition (%)
[42] = test system: SW-620; assay: NCI-60 SRB screen; type: cell-based; conditions: Homo sapiens; single dose 10^−5 M; SW-620, Colon cancer; read-out: Growth inhibition (%)
[43] = test system: MDA-MB-435; assay: NCI-60 SRB screen; type: cell-based; conditions: Homo sapiens, MDA-MB-435, read-out: Growth inhibition (%)
[44] = test system: K-562; assay: NCI-60 SRB screen; type: cell-based, human; conditions: Homo sapiens, K562; single dose 10^−5 M; K-562, Leukaemia; read-out: Growth inhibition (%)

`N#CC1=C(N2CCOCC2)NC(c2cccc([N+](=O)[O-])c2)c2sc3c(F)cccc3c21` (centres unmarked) [Compound 8e, 4-Cyano-3-(4-morpholino)-8-fluoro-1-(3-nitrophenyl)-1,2-dihydro [1]benzothieno[2,3-c]pyridine] gave an inhibition at 10 µM [1] of 6.7%, an inhibition at 10 µM [2] of 9.91% and an inhibition at 10 µM [3] of 5.54%. The inhibition at 10 µM [4] was -7.29%, the inhibition at 10 µM [5] was -16.5% and the inhibition at 10 µM [6] was -9.79%. It also gave an inhibition at 10 µM [7] of 2.61%, an inhibition at 10 µM [8] of -10.6% and an inhibition at 10 µM [9] of -2.93%. It also gave an inhibition at 10 µM [10] of 8.86%, an inhibition at 10 µM [11] of 0.52% and an inhibition at 10 µM [12] of 1.3%. For the same compound, the inhibition at 10 µM [13] was 7.51%, the inhibition at 10 µM [14] was 7.67% and the inhibition at 10 µM [15] was -0.28%. For the same compound, the inhibition at 10 µM [16] was 3.9%, the inhibition at 10 µM [17] was -8.91% and the inhibition at 10 µM [18] was 3.9%. It also gave an inhibition at 10 µM [19] of -1.97%, an inhibition at 10 µM [20] of 0.17% and an inhibition at 10 µM [21] of 9.9%. The inhibition at 10 µM [22] was -2.02%, the inhibition at 10 µM [23] was 2.35% and the inhibition at 10 µM [24] was 38.4%. It also gave an inhibition at 10 µM [25] of 25.4%, an inhibition at 10 µM [26] of 0.38% and an inhibition at 10 µM [27] of 6.67%. It also gave an inhibition at 10 µM [28] of 4.28%, an inhibition at 10 µM [29] of -6.78% and an inhibition at 10 µM [30] of -5.64%. For the same compound, the inhibition at 10 µM [31] was -14.6%, the inhibition at 10 µM [32] was 0.1% and the inhibition at 10 µM [33] was -17.4%. It also gave an inhibition at 10 µM [34] of 6.28%, an inhibition at 10 µM [35] of 11.9% and an inhibition at 10 µM [36] of 18%. For the same compound, the inhibition at 10 µM [37] was -6.7%, the inhibition at 10 µM [38] was 8.18% and the inhibition at 10 µM [39] was -6.46%. It also gave an inhibition at 10 µM [40] of 10.4%, an inhibition at 10 µM [41] of -59.3% and an inhibition at 10 µM [42] of 5.32%. The inhibition at 10 µM [43] was -7.7% and the inhibition at 10 µM [44] was 9.66%.

Source: article PMC8330742, “New benzothieno[2,3-c]pyridines as non-steroidal CYP17 inhibitors: design, synthesis, anticancer screening, apoptosis induction, and in silico ADME profile studies” (Journal of Enzyme Inhibition and Medicinal Chemistry, 2021)
